The text below walks through data of patent US12252488B2 (Nimbus Saturn, Inc., priority 2021, dated 2025).

pIC50: −log10 of the molar value. Bounds are passed on as bounds.

The term pIC50 denotes the negative decadic logarithm of the IC50, by convention in mol/L.

This assay deals with T1, HPK1 (Homo sapiens, UniProt Q92918).
T1 construct: purchased Invitrogen
T1 sequence (Q92918 whole entry): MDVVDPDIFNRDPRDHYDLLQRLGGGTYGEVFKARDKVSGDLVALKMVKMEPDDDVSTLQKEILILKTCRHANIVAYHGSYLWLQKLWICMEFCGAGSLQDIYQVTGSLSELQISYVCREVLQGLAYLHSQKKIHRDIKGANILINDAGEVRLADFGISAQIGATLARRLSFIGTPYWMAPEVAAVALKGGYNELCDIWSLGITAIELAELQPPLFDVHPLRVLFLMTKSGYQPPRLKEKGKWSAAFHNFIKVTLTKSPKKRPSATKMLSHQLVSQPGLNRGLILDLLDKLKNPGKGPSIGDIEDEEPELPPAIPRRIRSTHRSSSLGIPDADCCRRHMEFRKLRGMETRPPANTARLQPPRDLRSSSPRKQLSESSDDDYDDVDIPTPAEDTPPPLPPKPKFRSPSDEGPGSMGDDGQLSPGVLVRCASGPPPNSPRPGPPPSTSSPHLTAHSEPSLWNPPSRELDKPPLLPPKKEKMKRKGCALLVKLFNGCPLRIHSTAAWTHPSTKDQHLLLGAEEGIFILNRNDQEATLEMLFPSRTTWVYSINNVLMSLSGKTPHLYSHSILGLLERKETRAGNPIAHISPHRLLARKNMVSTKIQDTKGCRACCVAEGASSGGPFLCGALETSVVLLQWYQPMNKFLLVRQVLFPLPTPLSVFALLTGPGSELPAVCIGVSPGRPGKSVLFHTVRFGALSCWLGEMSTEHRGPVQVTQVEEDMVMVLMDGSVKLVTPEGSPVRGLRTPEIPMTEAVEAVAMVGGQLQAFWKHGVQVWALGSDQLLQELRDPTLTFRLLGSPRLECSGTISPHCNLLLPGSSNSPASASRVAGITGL
The assay is described as follows: HPK1 biochemical enzyme assay (microfluidic mobility shift assay). Particulars: 1000 uM (1 mM) ATP; Caliper mobility shift; 1.5 nM HPK1; 30 min preincubation; read-out: HPK1 1000UMATP caliper IC50. The essentials:
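Microfluidic mobility-shift readout with 1.5 nM HPK1 in pH 7.4 buffer; compounds (ten-point curves, top 3 μM final) preincubated 30 min with enzyme/substrate. Reaction started with 1 mM ATP and 1 μM substrate plus 5 mM MgCl2, run 60 min at RT. IC50 values binned into activity classes.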
As for `O=C(Nc1ccc(-c2cc(Nc3ccc(N4CCC(O)CC4)cn3)c3c(=O)[nH]ccc3n2)c(F)c1)[C@H]1C[C@H]2CC[C@@H]1C2` (single isomer, unassigned) [I-275], the pIC50 was no less than 7.00.

With `O=C(c1ccc(-c2cc(Nc3ccc(N4CCC(O)CC4)cn3)c3c(=O)[nH]ccc3n2)c(F)c1)N1CCC(O)CC1` [I-140, 2-[2-fluoro-4-(4-hydroxy-piperidine-1-carbonyl)phenyl]-4-[[5-(4-hydroxy-1-piperidyl)-2-pyridyl]amino]-6H-1,6-naphthyridin-5-one], the pIC50 is no less than 7.00.

As to `CC(C)(O)c1c[nH]c(=O)c2c(Nc3ccc(N4CCC(O)CC4)cn3)cc(-c3c(F)cccc3F)nc12` [I-16, 2-(2,6-difluorophenyl)-8-(1-hydroxy-1-methyl-ethyl)-4-[[5-(4-hydroxy-1-piperidyl)-2-pyridyl]amino]-6H-1,6-naphthyridin-5-one], the pIC50 is 6.00 to 7.00.

For `O=c1[nH]ccc2nc(-c3c(F)cccc3F)cc(Nc3ccc(N4CCNCC4)cn3)c12` [I-6, 2-(2,6-difluoro-phenyl)-4-[(5-piperazin-1-yl-2-pyridyl)amino]-6H-1,6-naphthyridin-5-one], the pIC50 was no less than 7.00.

In the case of `O=c1[nH]ccc2nc(C3CCC3)cc(Nc3ccc(N4CCC(O)CC4)cn3)c12` [I-26, 2-cyclobutyl-4-[[5-(4-hydroxy-1-piperidyl)-2-pyridyl]amino]-6H-1,6-naphthyridin-5-one], the pIC50 is less than 6.00.

Regarding `O=c1[nH]ccc2nc(C3CC3)cc(Nc3ccc(N4CCC(O)CC4)cn3)c12` [I-17, 2-cyclopropyl-4-[[5-(4-hydroxy-1-piperidyl)-2-pyridyl]amino]-6H-1,6-naphthyridin-5-one], the pIC50 was 6.00 to 7.00.

For the compound `CNC1CCc2cc(F)c(-c3cc(Nc4ccc(N5CCC(O)CC5)cn4)c4c(=O)[nH]ccc4n3)cc21` (stereo not drawn) [I-200, 2-[6-fluoro-3-(methyl-amino)indan-5-yl]-4-[[5-(4-hydroxy-1-piperidyl)-2-pyridyl]amino]-6H-1,6-naphthyridin-5-one], the pIC50 was no less than 7.00.

With `CNC1CCCc2c1ccc(F)c2-c1cc(Nc2ccc(N3CCC(O)CC3)cn2)c2c(=O)[nH]ccc2n1` (stereo not drawn) [I-224, 2-[6-fluoro-1-(methyl-amino)tetralin-5-yl]-4-[[5-(4-hydroxy-1-piperidyl)-2-pyridyl]amino]-6H-1,6-naphthyridin-5-one], the pIC50 is 6.00 to 7.00.

With `NC(=O)c1ccc(F)c(-c2cc(Nc3ccc(N4CCC(O)CC4)cn3)c3c(=O)[nH]ccc3n2)c1` [I-51, 4-fluoro-3-[4-[[5-(4-hydroxy-1-piperidyl)-2-pyridyl]amino]-5-oxo-6H-1,6-naphthyridin-2-yl]benzamide], the pIC50 was 6.00 to 7.00.

`CC1(C(=O)Nc2ccc(-c3cc(Nc4ccc(N5CCC(O)CC5)cn4)c4c(=O)[nH]ccc4n3)c(F)c2)COC1` [I-205]: the pIC50 was no less than 7.00.

For `CC1(C(=O)Nc2ccc(-c3cc(Nc4ccc(N5CCC(O)CC5)cn4)c4c(=O)[nH]ccc4n3)c(F)c2)CC1` [I-153], the pIC50 was 6.00 to 7.00.

Regarding `CCNC(=O)c1ccc(Nc2nc(-c3c(F)cccc3F)cc3cc[nH]c(=O)c23)cc1` [I-7, 4-[[3-(2,6-difluorophenyl)-8-oxo-7H-2,7-naphthyridin-1-yl]amino]-N-ethyl-benzamide], the pIC50 was 6.00 to 7.00.

In the case of `O=c1[nH]ccc2nc(-c3cc(CN4CC5(CCOC5)C4)ccc3F)cc(Nc3ccc(N4CCC(O)CC4)cn3)c12` [I-256, 2-[2-fluoro-5-(6-oxa-2-azaspiro [3.4]octan-2-ylmethyl)phenyl]-4-[[5-(4-hydroxy-1-piperidyl)-2-pyridyl]amino]-6H-1,6-naphthyridin-5-one], the pIC50 was less than 6.00.

As to `Cc1n[nH]c2cc(F)c(-c3cc(Nc4ccc(N5CCNCC5)cn4)c4c(=O)[nH]ccc4n3)cc12` [I-168, 2-(6-fluoro-3-methyl-1H-indazol-5-yl)-4-[[5-piperazin-1-yl-2-pyridyl)amino]-6H-1,6-naphthyridin-5-one], the pIC50 is no less than 7.00.

With `O=C(c1ccc(-c2cc(Nc3ccc(N4CCC(O)CC4)cn3)c3c(=O)[nH]ccc3n2)c(F)c1)N1CCCC(O)C1` (stereo not drawn) [I-145, 2-[2-fluoro-4-(3-hydroxy-piperidine-1-carbonyl)phenyl]-4-[[5-(4-hydroxy-1-piperidyl)-2-pyridyl]amino]-6H-1,6-naphthyridin-5-one], the pIC50 is less than 6.00.

In the case of `O=c1[nH]ccc2nc(C3CC4CCC3C4)cc(Nc3ccc(N4CCC(O)CC4)cn3)c12` (stereo not drawn) [I-35, 4-[[5-(4-hydroxy-1-piperidyl)-2-pyridyl]amino]-2-norbornan-2-yl-6H-1,6-naphthyridin-5-one], the pIC50 was 6.00 to 7.00.

As to `CN(C)C1CCc2cc(F)c(-c3cc(Nc4ccc(N5CCC(O)CC5)cn4)c4c(=O)[nH]ccc4n3)cc21` (stereo not drawn) [I-244, 2-[3-(dimethyl-amino)-6-fluoro-indan-5-yl]-4-[[5-(4-hydroxy-1-piperidyl)-2-pyridyl]amino]-6H-1,6-naphthyridin-5-one], the negative logarithm of the IC50 (pIC50) was no less than 7.00.

For the compound `O=c1[nH]ccc2nc(-c3ccc(C4CCCO4)cc3F)cc(Nc3ccc(N4CCC(O)CC4)cn3)c12` (stereo not drawn) [I-276, 2-(2-fluoro-4-THF-2-yl-phenyl)-4-[[5-(4-hydroxy-1-piperidyl)-2-pyridyl]amino]-6H-1,6-naphthyridin-5-one], the pIC50 was less than 6.00.

Regarding `COCCOC1CN(c2ccc(Nc3cc(-c4ccc(NC(=O)C5CCCCC5)cc4F)nc4cc[nH]c(=O)c34)nc2)C1` [I-189, N-[3-fluoro-4-[4-[[5-[3-(2-methoxy-ethoxy)azetidin-1-yl]-2-pyridyl]amino]-5-oxo-6H-1,6-naphthyridin-2-yl]phenyl] cyclohexane carboxamide], the pIC50 is 6.00 to 7.00.

Take `O=C(c1ccc(-c2cc(Nc3ccc(N4CCC(O)CC4)cn3)c3c(=O)[nH]ccc3n2)c(F)c1)N1CCCCC1` [I-71, 2-[2-fluoro-4-(piperidine-1-carbonyl)phenyl]-4-[[5-(4-hydroxy-1-piperidyl)-2-pyridyl]amino]-6H-1,6-naphthyridin 5-one]: the pIC50 is 6.00 to 7.00.

`CC(C)c1cc(Nc2ccc(N3CCC(O)CC3)cn2)c2c(=O)[nH]cnc2n1` [I-59, 5-[[5-(4-hydroxy-1-piperidyl)-2-pyridyl]amino]-7-isopropyl-3H-pyrido[2,3-d]pyrimidin-4-one]: the pIC50 was 6.00 to 7.00.

On to `CN1C(=O)Cc2cc(-c3cc(Nc4ccc(N5CCC(O)CC5)cn4)c4c(=O)[nH]ccc4n3)cnc21` [I-213, 4-[[5-(4-hydroxy-1-piperidyl)-2-pyridyl]amino]-2-(1-methyl-2-oxo-3H-pyrrolo[2,3-b]pyridin-5-yl)-6H-1,6-naphthyridin-5-one], for which the pIC50 is 6.00 to 7.00.

Regarding `COC1CCCN(C(=O)c2ccc(-c3cc(Nc4ccc(N5CCC(O)CC5)cn4)c4c(=O)[nH]ccc4n3)c(F)c2)C1` (stereo not drawn) [I-133, 2-[2-fluoro-4-(3-methoxy-piperidine-1-carbonyl)phenyl]-4-[[5-(4-hydroxy-1-piperidyl)-2-pyridyl]amino]-6H-1,6-naphthyridin-5-one], the pIC50 was no less than 7.00.

On to `O=c1[nH]cc(-c2ccccc2)c2nc(-c3c(F)cccc3F)cc(Nc3ccc(N4CCC(O)CC4)cn3)c12` [I-56], for which the pIC50 was less than 6.00.

Turning to `O=C(c1ccc(-c2cc(Nc3ccc(N4CCC(O)CC4)cn3)c3c(=O)[nH]ccc3n2)c(F)c1)N1CCNCC1` [I-119, 2-[2-fluoro-4-(piperazine-1-carbonyl)phenyl]-4-[[5-(4-hydroxy-1-piperidyl)-2-pyridyl]amino]-6H-1,6-naphthyridin-5-one], the pIC50 is 6.00 to 7.00.

Consider `CCNC(=O)C(C)(C)c1ccc(Nc2cc(-c3cc(C(C)C)ccc3F)nc3cc[nH]c(=O)c23)nc1` [I-128, N-ethyl-2-[6-[[2-(2-fluoro-5-isopropyl-phenyl)-5-oxo-6H-1,6-naphthyridin-4-yl]amino]-3-pyridyl]-2-methyl-propanamide], for which the negative-log IC50 (pIC50) was 6.00 to 7.00.

As for `CC(=O)N1CCCC1c1ccc(F)c(-c2cc(Nc3ccc(N4CCC(O)CC4)cn3)c3c(=O)[nH]ccc3n2)c1` (stereo not drawn) [I-248, 2-[5-(1-acetyl-pyrrolidin-2-yl)-2-fluoro-phenyl]-4-[[5-(4-hydroxy-1-piperidyl)-2-pyridyl]amino]-6H-1,6-naphthyridin-5-one], the pIC50 was no less than 7.00.

Consider `Cc1cc(-c2cc(Nc3ccc(N4CCC(O)CC4)cn3)c3c(=O)[nH]ccc3n2)c(F)cc1CN1CCCCC1` [I-194, 2-[2-fluoro-5-methyl-4-(1-piperidyl-methyl)phenyl]-4-[[5-(4-hydroxy-1-piperidyl)-2-pyridyl]amino]-6H-1,6-naphthyridin-5-one], for which the pIC50 was no less than 7.00.

For `COc1cc(-c2cc(Nc3ccc(N4CCNCC4)cn3)c3c(=O)[nH]ccc3n2)c(F)cc1C(=O)N1CCC1` [I-175, 2-[4-(azetidine-1-carbonyl)-2-fluoro-5-methoxy-phenyl]-4-[(5-piperazin-1-yl-2-pyridyl)amino]-6H-1,6-naphthyridin-5-one], the pIC50 is 6.00 to 7.00.

`O=c1[nH]ccc2nc(-c3cc4c(cc3F)C(N3CCOCC3)CC4)cc(Nc3ccc(N4CCC(O)CC4)cn3)c12` (stereo not drawn) [I-259, 2-(6-fluoro-1-morphoino-indan-5-y)-4-[[5-(4-hydroxy-1-piperidy)-2-pyridy]amino]-6H-1,6-naphthyridin-5-one]: the pIC50 is no less than 7.00.

Consider `CC(C)c1ccc(F)c(-c2cc(Nc3ccc(N4CCNCC4)cn3)c3c(=O)[nH]ccc3n2)c1` [I-110, 2-(2-fluoro-5-isopropyl-phenyl)-4-[(5-piperazin-1-yl-2-pyridyl)amino]-6H-1,6-naphthyridin-5-one], for which the pIC50 is no less than 7.00.

`CCc1c[nH]c(=O)c2c(Nc3ccc(N4CCC(O)CC4)cn3)cc(-c3c(F)cccc3F)nc12` [I-49, 2-(2,6-difluorophenyl)-8-ethyl-4-((5-(4-hydroxypiperidin-1-yl)pyridin-2-yl)amino)-1,6-naphthyridin-5(6H)-one]: the pIC50 is 6.00 to 7.00.

`C[C@@H]1COC[C@@H](C)N1c1ccc(Nc2cc(-c3ccc(NC(=O)C4CCCCC4)cc3F)nc3cc[nH]c(=O)c23)nc1` [I-191, N-[4-[4-[[5-[(3R,5R)-3,5-dimethyl-morpholin-4-yl]-2-pyridyl]amino]-5-oxo-6H-1,6-naphthyridin-2-yl]-3-fluoro-phenyl] cyclohexane-carboxamide]: the pIC50 is no less than 7.00.
